Laboratory results published in patent publication US11807644B2 (PMV Pharmaceuticals, Inc., priority 2020, dated 2023).

Target: T1, recombinant His-tag Y220C p53 DBD protein (Homo sapiens, UniProt P04637, Y220C)
T1 construct: recombinant His-tag Y220C p53 DBD protein (amino acids #˜94-312)
Assay: In vitro DNA binding activity assay (TR-FRET): binding of His-tag Y220C p53 DBD to biotin-labeled consensus DNA
Type: biochemical
Conditions: for SC150 (μM): concentration to increase DNA binding by […], incubated at either 27° C. or 29° C. for 60 min; for Y220C SC150 (μM): SC150 = concentration to increase DNA binding by […], His-tag Y220C p53 DBD, biotin-labeled consensus DNA

| SC150 (μM) | Y220C SC150 (μM) | SMILES |
| --- | --- | --- |
| +++ (+++ = 5 μM ≤ SC150 < 10 μM) | – | O=S1(=O)CCC(Nc2cccc3c2cc(-c2ccc(CN4CCOCC4)cc2)n3CC(F)(F)F)CC1 [Compound 24A, 4-[(2-{4-[(morpholin-4-yl)methyl]phenyl}-1-(2,2,2-trifluoroethyl)-1H-indol-4-yl)amino]-1λ^6-thiane-1,1-dione] |
| – | ** (** = 0.1 μM ≤ SC150 < 0.5 μM) | CN1CCC(Nc2cccc3c2cc(-c2nnc(CNc4ccc(S(C)(=O)=O)cc4)s2)n3CC(F)(F)F)CC1 [Compound 24B, 2-(5-{[(4-methanesulfonylphenyl)amino]methyl}-1,3,4-thiadiazol-2-yl)-N-(1-methylpiperidin-4-yl)-1-(2,2,2-trifluoroethyl)-1H-indol-4-amine] |
| +++ (+++ = 5 μM ≤ SC150 < 10 μM) | – | COC(=O)Nc1cccc(-c2cc3c(NC4CCS(=O)(=O)CC4)cccc3n2CC(F)(F)F)c1 [Compound 25A, methyl N-(3-{4-[(1,1-dioxo-1λ^6-thian-4-yl)amino]-1-(2,2,2-trifluoroethyl)-1H-indol-2-yl}phenyl)carbamate] |
| – | ** (** = 0.1 μM ≤ SC150 < 0.5 μM) | CN1CC[C@H](Nc2cccc3c2cc(-c2nnc(CNC(=O)C4CC4)s2)n3CC(F)(F)F)[C@H](F)C1 [Compound 25B, N-{[5-(4-{[(3R,4S)-3-fluoro-1-methylpiperidin-4-yl]amino}-1-(2,2,2-trifluoroethyl)-1H-indol-2-yl)-1,3,4-thiadiazol-2-yl]methyl}cyclopropanecarboxamide] |
| ++ (++ = 2 μM ≤ SC150 < 5 μM) | – | N#CC1(c2ccc(-c3cc4c(NC5CCS(=O)(=O)CC5)cccc4n3CC(F)(F)F)cc2)CC1 [Compound 26A, 1-(4-{4-[(1,1-dioxo-1λ^6-thian-4-yl)amino]-1-(2,2,2-trifluoroethyl)-1H-indol-2-yl}phenyl)cyclopropane-1-carbonitrile] |
| – | ** (** = 0.1 μM ≤ SC150 < 0.5 μM) | CN1CC[C@H](Nc2cccc3c2cc(-c2nnc(CNC(=O)c4ccccc4)s2)n3CC(F)(F)F)[C@H](F)C1 [Compound 26B, N-{[5-(4-{[(3R,4S)-3-fluoro-1-methylpiperidin-4-yl]amino}-1-(2,2,2-trifluoroethyl)-1H-indol-2-yl)-1,3,4-thiadiazol-2-yl]methyl}benzamide] |
| ++ (++ = 2 μM ≤ SC150 < 5 μM) | – | O=S1(=O)CCC(Nc2cccc3c2cc(-c2ccc(CO)cc2)n3CC(F)(F)F)CC1 [Compound 27A, 4-({2-[4-(hydroxymethyl)phenyl]-1-(2,2,2-trifluoroethyl)-1H-indol-4-yl}amino)-1λ^6-thiane-1,1-dione] |
| + (+ = 0 μM ≤ SC150 < 2 μM) | – | CS(=O)(=O)c1ccc(NC(=O)NCc2ccc(-c3cc4c(NC5CCS(=O)(=O)CC5)cccc4n3CC(F)(F)F)cc2)cc1 [Compound 28A, 1-[(4-{4-[(1,1-dioxo-1λ^6-thian-4-yl)amino]-1-(2,2,2-trifluoroethyl)-1H-indol-2-yl}phenyl)methyl]-3-(4-methanesulfonylphenyl)urea] |
| + (+ = 0 μM ≤ SC150 < 2 μM) | – | CS(=O)(=O)c1ccc(NCc2ccc(-c3cc4c(NC5CCS(=O)(=O)CC5)cccc4n3CC(F)(F)F)cc2)cn1 [Compound 29A, 4-{[2-(4-{[(6-methanesulfonylpyridin-3-yl)amino]methyl}phenyl)-1-(2,2,2-trifluoroethyl)-1H-indol-4-yl]amino}-1λ^6-thiane-1,1-dione] |
| + (+ = 0 μM ≤ SC150 < 2 μM) | – | CS(=O)(=O)c1ccc(NCc2ccc(-c3cc4c(NC5CCN(C6CCOCC6)CC5)cccc4n3CC(F)(F)F)cc2)cc1 [Compound 30A, 2-(4-{[(4-methanesulfonylphenyl)amino]methyl}phenyl)-N-[1-(oxan-4-yl)piperidin-4-yl]-1-(2,2,2-trifluoroethyl)-1H-indol-4-amine] |
| + (+ = 0 μM ≤ SC150 < 2 μM) | – | Cc1ccc(NCc2ccc(-c3cc4c(NC5CCN(C6CCOCC6)CC5)cccc4n3CC(F)(F)F)cc2)cn1 [Compound 31A, 2-(4-{[(6-methylpyridin-3-yl)amino]methyl}phenyl)-N-[1-(oxan-4-yl)piperidin-4-yl]-1-(2,2,2-trifluoroethyl)-1H-indol-4-amine] |
| – | ** (** = 0.1 μM ≤ SC150 < 0.5 μM) | CN1CCC(Nc2cccc3c2cc(-c2nnc(CNC(=O)C4(F)CC4)s2)n3CC(F)(F)F)CC1 [Compound 31B, 1-fluoro-N-[(5-{4-[(1-methylpiperidin-4-yl)amino]-1-(2,2,2-trifluoroethyl)-1H-indol-2-yl}-1,3,4-thiadiazol-2-yl)methyl]cyclopropane-1-carboxamide] |
| ++ (++ = 2 μM ≤ SC150 < 5 μM) | – | FC(F)(F)Cn1c(-c2ccc(CNc3ccc(Cl)cc3)cc2)cc2c(NC3CCN(C4CCOCC4)CC3)cccc21 [Compound 32A, 2-(4-{[(4-chlorophenyl)amino]methyl}phenyl)-N-[1-(oxan-4-yl)piperidin-4-yl]-1-(2,2,2-trifluoroethyl)-1H-indol-4-amine] |
| ++ (++ = 2 μM ≤ SC150 < 5 μM) | – | COc1ccc(NCc2ccc(-c3cc4c(NC5CCN(C6CCOCC6)CC5)cccc4n3CC(F)(F)F)cc2)cc1 [Compound 33A, 2-(4-{[(4-methoxyphenyl)amino]methyl}phenyl)-N-[1-(oxan-4-yl)piperidin-4-yl]-1-(2,2,2-trifluoroethyl)-1H-indol-4-amine] |
| ++++ (++++ = 10 μM ≤ SC150 < 35 μM) | – | FC(F)(F)Cn1c(-c2ccc(CNc3cccc(Cl)c3)cc2)cc2c(NC3CCN(C4CCOCC4)CC3)cccc21 [Compound 34A, 2-(4-{[(3-chlorophenyl)amino]methyl}phenyl)-N-[1-(oxan-4-yl)piperidin-4-yl]-1-(2,2,2-trifluoroethyl)-1H-indol-4-amine] |
| +++ (+++ = 5 μM ≤ SC150 < 10 μM) | – | Cc1ccc(NCc2ccc(-c3cc4cc(CNC5CCN(C)CC5)ccc4n3CC(F)(F)F)cc2)cn1 [Compound 35A, 6-methyl-N-{[4-(5-{[(1-methylpiperidin-4-yl)amino]methyl}-1-(2,2,2-trifluoroethyl)-1H-indol-2-yl)phenyl]methyl}pyridin-3-amine] |
| – | * (* = 0 μM ≤ SC150 < 0.1 μM) | CN1CCC(Nc2cccc3c2cc(-c2nnc(CNC(=O)C4CC4)s2)n3CC(F)(F)F)CC1 [Compound 35B, N-[(5-{4-[(1-methylpiperidin-4-yl)amino]-1-(2,2,2-trifluoroethyl)-1H-indol-2-yl}-1,3,4-thiadiazol-2-yl)methyl]cyclopropanecarboxamide] |
| ++ (++ = 2 μM ≤ SC150 < 5 μM) | – | CN1CCC(NCc2ccc3c(c2)cc(-c2ccc(CNc4ccc(S(C)(=O)=O)cc4)cc2)n3CC(F)(F)F)CC1 [Compound 36A, N-{[2-(4-{[(4-methanesulfonylphenyl)amino]methyl}phenyl)-1-(2,2,2-trifluoroethyl)-1H-indol-5-yl]methyl}-1-methylpiperidin-4-amine] |
| +++ (+++ = 5 μM ≤ SC150 < 10 μM) | – | CN1CCC(Nc2cccc3c2cc(-c2ccc(C(N)c4ccccc4)cc2)n3CC(F)(F)F)CC1 (stereo not drawn) [Compound 38A, 2-{4-[amino(phenyl)methyl]phenyl}-N-(1-methylpiperidin-4-yl)-1-(2,2,2-trifluoroethyl)-1H-indol-4-amine] |
| – | * (* = 0 μM ≤ SC150 < 0.1 μM) | COC(=O)c1ccc(C(=O)NCc2nnc(-c3cc4c(NC5CCN(C)CC5)cccc4n3CC(F)(F)F)s2)cc1 [Compound 39B, methyl 4-{[(5-{4-[(1-methylpiperidin-4-yl)amino]-1-(2,2,2-trifluoroethyl)-1H-indol-2-yl}-1,3,4-thiadiazol-2-yl)methyl]carbamoyl}benzoate] |
| ++++ (++++ = 10 μM ≤ SC150 < 35 μM) | – | CN1CCC(Nc2cccc3c2cc(-c2ccc(CNC4CCCC4)cc2)n3CC(F)(F)F)CC1 [Compound 40A, 2-{4-[(cyclopentylamino)methyl]phenyl}-N-(1-methylpiperidin-4-yl)-1-(2,2,2-trifluoroethyl)-1H-indol-4-amine] |
| ++ (++ = 2 μM ≤ SC150 < 5 μM) | – | CC(Nc1ccc(S(C)(=O)=O)cc1)c1ccc(-c2cc3c(NC4CCN(C)CC4)cccc3n2CC(F)(F)F)cc1 (stereo not drawn) [Compound 41A, 2-(4-{1-[(4-methanesulfonylphenyl)amino]ethyl}phenyl)-N-(1-methylpiperidin-4-yl)-1-(2,2,2-trifluoroethyl)-1H-indol-4-amine] |
| – | ** (** = 0.1 μM ≤ SC150 < 0.5 μM) | CN1CCC(Nc2cccc3c2cc(-c2nnc(CNC(=O)c4ccccn4)s2)n3CC(F)(F)F)CC1 [Compound 41B, N-[(5-{4-[(1-methylpiperidin-4-yl)amino]-1-(2,2,2-trifluoroethyl)-1H-indol-2-yl}-1,3,4-thiadiazol-2-yl)methyl]pyridine-2-carboxamide] |
| – | ** (** = 0.1 μM ≤ SC150 < 0.5 μM) | CN1CCC(Nc2cccc3c2cc(-c2nnc(CNC(=O)c4cccnc4)s2)n3CC(F)(F)F)CC1 [Compound 42B, N-[(5-{4-[(1-methylpiperidin-4-yl)amino]-1-(2,2,2-trifluoroethyl)-1H-indol-2-yl}-1,3,4-thiadiazol-2-yl)methyl]pyridine-3-carboxamide] |
| + (+ = 0 μM ≤ SC150 < 2 μM) | – | CN1CC[C@H](Nc2cccc3c2cc(-c2ccc(CNc4ccc(S(C)(=O)=O)cc4)cc2)n3CC(F)(F)F)[C@H](F)C1 [Compound 44A, N-[(3R,4S)-3-fluoro-1-methylpiperidin-4-yl]-2-(4-{[(4-methanesulfonylphenyl)amino]methyl}phenyl)-1-(2,2,2-trifluoroethyl)-1H-indol-4-amine] |
| – | * (* = 0 μM ≤ SC150 < 0.1 μM) | CN1CCC(Nc2cccc3c2cc(-c2nnc(CNC(=O)c4ccc(CN5CCOCC5)cc4)s2)n3CC(F)(F)F)CC1 [Compound 45B, N-[(5-{4-[(1-methylpiperidin-4-yl)amino]-1-(2,2,2-trifluoroethyl)-1H-indol-2-yl}-1,3,4-thiadiazol-2-yl)methyl]-4-[(morpholin-4-yl)methyl]benzamide] |
| – | * (* = 0 μM ≤ SC150 < 0.1 μM) | CN1CCC(Nc2cccc3c2cc(-c2nnc(CNC(=O)c4cccc(CN5CCOCC5)c4)s2)n3CC(F)(F)F)CC1 [Compound 46B, N-[(5-{4-[(1-methylpiperidin-4-yl)amino]-1-(2,2,2-trifluoroethyl)-1H-indol-2-yl}-1,3,4-thiadiazol-2-yl)methyl]-3-[(morpholin-4-yl)methyl]benzamide] |
